Assay results from patent US6642271B2, “Potentiating compounds” (Ardenia Investments, Ltd., priority 2001, dated 2003).

Assays:
[1] = test system: human breast adenocarcinoma MDA-MB-231 cell line; test: Cytotoxicity: cell growth inhibition in cultures, viable cells counted by trypan blue exclusion; type: cell-based; settings: for inhibition at 0.04 µM / inhibition at 1 µM / inhibition at 0.1 µM / inhibition at 0.01 µM / inhibition at 0.001 µM / inhibition at 0.0001 µM / inhibition at 10 pM: Homo sapiens; for inhibition at 0.04 µM / inhibition at 1 µM / inhibition at 0.1 µM / inhibition at 0.01 µM / inhibition at 0.001 µM / inhibition at 0.0001 µM: MDA-MB-231, sodium salt in saline; for inhibition at 0.04 µM / inhibition at 1 µM / inhibition at 0.1 µM / inhibition at 0.01 µM / inhibition at 0.001 µM / inhibition at 0.0001 µM / inhibition at 10 pM / number of living cells / cell growth inhibition: day 1, three days; for inhibition at 1 µM / cell growth inhibition: final 10^−6 mol/L (top of range 10^−11 M to 10^−6 M); for inhibition at 10 pM: MDA-MB-231, sodium salt of the compound dissolved in saline (1 mg/ml); for Cell growth inhibition % Formulation: compound/paclitaxel formulations in saline; for Cell growth inhibition % OF W/SAB / Cell growth inhibition % OF SAB/W: dried compound/paclitaxel mixed-micellar system (OF); for Cell growth inhibition % OF W/SAB: freeze-dried as water solution, reconstituted with 0.05 M sodium acetate buffer; for Cell growth inhibition % OF SAB/W: freeze-dried in 0.05 M sodium acetate buffer, reconstituted with water
Method: The cell line was propagated by cultivation in Nunclon 25 cm^2 flasks (Nunc A/S, Denmark) in Minimum Essential Medium Eagle (MEM), containing antibiotics and supplemented with 10% (v/v) fetal bovine serum (FBS) (Sigma, St. Louis, Mo., USA). The cultures were maintained in growth medium at 37° C. in a humidified atmosphere, 95% air and 5% CO2.
A suspension of tumour cells (60×10^3 cells/mL) was prepared in MEM with 5% FBS and antibiotics. Cell suspension (200 μL) was seeded in wells of Nunclon 96-microwell plates (Nunc A/S, Denmark) at a density of 12×10^3 cell/well. The solutions of the drugs to be tested were added to the cultures on day 0 or day 1 in volumes of 2 μL. In all cases the cells were incubated for 3 days.
At the end of the incubation period, adherent cells were detached by trypsinization and the number of viable cells was counted using trypan blue dye exclusion test and a hemocytometer.
All experiments were performed at least twice and the cells counts were done in triplicate for each drug concentration. Each control and test series consisted of 6-8 cultures. The results are expressed as mean cell number ±SD and the differences between control and test series were evaluated by means of Student's t-test. The cytotoxicity of each tested drug was evaluated by the extent of cell growth inhibition. The Cell growth inhibition was evaluated as follows:
Cell growth inhibition, %=- - - ×100

[2] = Solubility of compounds and formulations; type: physicochemical; settings: for solubility in solvents: sodium salts
Method: The obtained solution can be stored for at least three months at low temperatures, without noticeable change in the properties of compound (I-VI). Moreover, the formulation retains its cytotoxic effects during prolonged storage. Before use, the solution is evaporated in vacuo to yield a waxy solid which is dissolved in saline or other commonly used vehicle for intravenous infusion to a patient. […] An ethanol solution is prepared of one of N-(all-trans-Retinoyl)-L-cysteic acid (I), N-(13-cis-Retinoyl)-L-cysteic acid (11), N-(all-trans-Retinoyl)-L-homocysteic acid (III), N-(13-cis-Retinoyl)-L-homocysteic acid (IV), N-(all-trans-Retinoyl)-L-cysteinesulfinic acid (V), or N-(13-cis-Retinoyl)-L-cysteinesulfinic acid (VI). The obtained solution is evaporated in vacuo to give waxy solid, whereupon Taxol® is added, dissolving the waxy solid. […]

[3] = final concentration 10^−11 mol/L
[4] = sodium salt in saline, final 4 × 10^−8 mol/L
[5] = sodium salt in saline, final 10^−6 mol/L
[6] = sodium salt in saline, final 10^−7 mol/L
[7] = sodium salt in saline, final 10^−8 mol/L
[8] = sodium salt in saline, final 10^−9 mol/L
[9] = sodium salt in saline, final 10^−10 mol/L
[10] = sodium salt of the compound dissolved in saline (1 mg/ml), final concentration 10^−11 mol/L

| SMILES | inhibition at 0.04 µM ([1]; final 4 × 10^−8 mol/L) | inhibition at 1 µM [1] | inhibition at 0.1 µM ([1]; final 10^−7 mol/L) | inhibition at 0.01 µM ([1]; final 10^−8 mol/L) | inhibition at 0.001 µM ([1]; final 10^−9 mol/L) | inhibition at 0.0001 µM ([1]; final 10^−10 mol/L) | inhibition at 10 pM [1, 3] | Cell growth inhibition % Formulation [1] | Cell growth inhibition % OF W/SAB [1] | Cell growth inhibition % OF SAB/W [1] | number of living cells [1, 4] | cell growth inhibition ([1]; sodium salt in saline) | number of living cells [1, 5] | number of living cells [1, 6] | number of living cells [1, 7] | number of living cells [1, 8] | number of living cells [1, 9] | number of living cells [1, 10] | solubility in the commercially available Taxol® preparation [2] | solubility in solvents [2] |
| --- | --- | --- | --- | --- | --- | --- | --- | --- | --- | --- | --- | --- | --- | --- | --- | --- | --- | --- | --- | --- |
| CC1=C(/C=C/C(C)=C/C=C/C(C)=C\C(=O)N[C@@H](CCS(=O)(=O)O)C(=O)O)C(C)(C)CCC1 [Compound IV, N-(13-cis-Retinoyl)-L-homocysteic acid] | 29.6% | 31.9% | 31.1% | 24.9% | 17.3% | 16.1% | 14.8% | close to 60% | close to 62% | close to 63% | 37.1 ± 2.56 × 10^3 | ~35% | 35.9 ± 2.29 × 10^3 | 36.3 ± 2.08 × 10^3 | 39.6 ± 2.74 × 10^3 | 43.6 ± 3.21 × 10^3 | 44.2 ± 3.35 × 10^3 | 44.9 ± 3.02 × 10^3 | excellent solubility | also dissolved in methanol and some methanol containing mixtures |
| CC1=C(/C=C/C(C)=C/C=C/C(C)=C/C(=O)N[C@@H](CS(=O)O)C(=O)O)C(C)(C)CCC1 [Compound V, N-(all-trans-Retinoyl)-L-cysteinesulfinic acid] | 27.1% | 29.8% | 27.6% | 24.3% | 16.2% | 14.7% | 13.3% | close to 55% | close to 56% | close to 58% | 39.6 ± 1.75 × 10^3 | ~30% | 38.1 ± 1.86 × 10^3 | 39.3 ± 1.22 × 10^3 | 41.1 ± 2.34 × 10^3 | 45.5 ± 2.80 × 10^3 | 46.3 ± 2.49 × 10^3 | 47.1 ± 2.41 × 10^3 | excellent solubility | soluble only in mixtures containing water |
| CC1=C(/C=C/C(C)=C/C=C/C(C)=C\C(=O)N[C@@H](CS(=O)O)C(=O)O)C(C)(C)CCC1 [Compound VI, N-(13-cis-Retinoyl)-L-cysteinesulfinic acid] | 24.9% | 27.3% | 25.8% | 22.4% | 14% | 13.7% | 12.3% | close to 55% | close to 56% | close to 58% | 39.6 ± 2.70 × 10^3 | ~30% | 38.3 ± 2.34 × 10^3 | 39.1 ± 2.16 × 10^3 | 40.9 ± 2.88 × 10^3 | 45.3 ± 2.55 × 10^3 | 45.5 ± 2.68 × 10^3 | 46.2 ± 3.54 × 10^3 | excellent solubility | soluble only in mixtures containing water |
